The text below walks through data of US9603364B2 (Dow AgroSciences LLC, priority 2013, dated 2017).

Bounds are passed on as bounds.

What all share (experiment): General post-emergent herbicidal activity, foliar application
Format in all cases: in vivo

The subject of one experiment is Zea mays L. (corn). The following applies: 336 h, scored after 14 days, read-out: % Visual Growth Reduction ZEAMX; for plant injury at 70 g/ha: 70 g ai/ha; for plant injury at 140 g/ha: 140 g ai/ha; for plant injury at 280 g/ha: 280 g ai/ha. Put shortly: (§1)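 Injury rated visually 14 days after treatment on a 0 (none) to 100% (complete kill) scale against untreated plants; greenhouse-grown, sub-irrigated to avoid wash-off. Foliar spray in aqueous acetone/DMSO with isopropanol, crop oil concentrate and Triton X-155, at a highest rate and 2-fold serial dilutions down to 1/16×.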

A further experiment relates to Oryza sativa L. (rice). The following applies: Oryza sativa, 336 h, scored after 14 days, read-out: % Visual Growth Reduction ORYSA; for plant injury at 70 g/ha: 70 g ai/ha; for plant injury at 140 g/ha: 140 g ai/ha; for plant injury at 280 g/ha: 280 g ai/ha. Put shortly:
as §1

The subject of experiment [1] is Viola tricolor L. (pansy). The following applies: for pest or weed control at 70 g/ha: 70 g ai/ha; for pest or weed control at 140 g/ha: 140 g ai/ha; for pest or weed control at 280 g/ha: 280 g ai/ha; for GR80 Value VIOTR: calculated by probit analysis, dose for 80% visual injury, may be extrapolated. Put shortly:
(§2)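 Compounds in acetone/DMSO (97:3) were diluted into aqueous spray containing isopropyl alcohol, Atplus 411F crop oil and Triton X-155, then applied post-emergence to foliage at a top rate plus 1/2× to 1/16× serial dilutions. Injury was scored visually (0–100%) after 14 days in a sub-irrigated greenhouse versus untreated plants. GR20/GR50/GR80 were derived by probit analysis, with some GR80 values extrapolated from curve slope.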

The subject of experiment [2] is Chenopodium album L. (lambsquarters, common). The following applies: for pest or weed control at 70 g/ha: 70 g ai/ha; for pest or weed control at 140 g/ha: 140 g ai/ha; for pest or weed control at 280 g/ha: 280 g ai/ha; for GR80 Value CHEAL: calculated by probit analysis, dose for 80% visual injury, may be extrapolated. Put shortly:
as §2

In experiment [3] the test system is Amaranthus retroflexus L. (pigweed, redroot). The following applies: for pest or weed control at 70 g/ha: 70 g ai/ha; for pest or weed control at 140 g/ha: 140 g ai/ha; for pest or weed control at 280 g/ha: 280 g ai/ha; for GR80 Value AMARE: calculated by probit analysis, dose for 80% visual injury, may be extrapolated. Put shortly: as §2
In experiment [4] the test system is Echinochloa crus-galli (L.) Beauv. (barnyardgrass). The following applies: for pest or weed control at 70 g/ha: 70 g ai/ha; for pest or weed control at 140 g/ha: 140 g ai/ha; for pest or weed control at 280 g/ha: 280 g ai/ha; for GR80 Value ECHCG: calculated by probit analysis, dose for 80% visual injury, may be extrapolated. Put shortly:
as §2

In experiment [5] the test system is Helianthus annuus L. (sunflower, common). The following applies: for pest or weed control at 70 g/ha: 70 g ai/ha; for pest or weed control at 140 g/ha: 140 g ai/ha; for pest or weed control at 280 g/ha: 280 g ai/ha; for GR80 Value HELAN: calculated by probit analysis, dose for 80% visual injury, may be extrapolated. Put shortly: as §2
Experiment [6] relates to Euphorbia heterophylla L. (poinsettia, wild). The following applies: for pest or weed control at 70 g/ha: 70 g ai/ha; for pest or weed control at 140 g/ha: 140 g ai/ha; for pest or weed control at 280 g/ha: 280 g ai/ha; for GR80 Value EPHHL: calculated by probit analysis, dose for 80% visual injury, may be extrapolated. Put shortly:
as §2

The mark [7] stands for this setting: Viola tricolor, 336 h, foliar post-emergent, scored after 14 days, read-out: % Visual Growth Reduction VIOTR.
Setting [8] is: Chenopodium album, 336 h, foliar post-emergent, scored after 14 days, read-out: % Visual Growth Reduction CHEAL.
Where [9] appears, read: Amaranthus retroflexus, 336 h, foliar post-emergent, scored after 14 days, read-out: % Visual Growth Reduction AMARE.
Where [10] appears, read: Echinochloa crus-galli, 336 h, foliar post-emergent, scored after 14 days, read-out: % Visual Growth Reduction ECHCG.
Setting [11] is: Helianthus annuus, 336 h, foliar post-emergent, scored after 14 days, read-out: % Visual Growth Reduction HELAN.
[12] abbreviates: Euphorbia heterophylla, 336 h, foliar post-emergent, scored after 14 days, read-out: % Visual Growth Reduction EPHHL.

For the compound `COC(=O)c1nc(CF)c(F)c(N)c1Cl` [Compound F14, Methyl 4-amino-3-chloro-5-fluoro-6-(fluoromethyl)picolinate], the plant injury at 35 g/ha in the experiment on Zea mays L. (corn) (35 g ai/ha) and in the experiment with Oryza sativa L. (rice) (35 g ai/ha) was 0% in each case. Also, the plant injury at 70 g/ha with Zea mays L. (corn) and in the experiment on Oryza sativa L. (rice) was 0% each time. For the same compound, the plant injury at 140 g/ha is 20% in the experiment on Zea mays L. (corn) and 0% in the experiment with Oryza sativa L. (rice). The plant injury at 280 g/ha with Zea mays L. (corn) was 45%; in the experiment on Oryza sativa L. (rice) it was 0%. Further, the pest or weed control at 35 g/ha is 0% in experiment [1] (Viola tricolor, 336 h, 35 g ai/ha, foliar post-emergent, scored after 14 days, read-out: % Visual Growth Reduction VIOTR); 85% in experiment [2] (Chenopodium album, 336 h, 35 g ai/ha, foliar post-emergent, scored after 14 days, read-out: % Visual Growth Reduction CHEAL); 70% in experiment [3] (Amaranthus retroflexus, 336 h, 35 g ai/ha, foliar post-emergent, scored after 14 days, read-out: % Visual Growth Reduction AMARE); 0% in experiment [4] (Echinochloa crus-galli, 336 h, 35 g ai/ha, foliar post-emergent, scored after 14 days, read-out: % Visual Growth Reduction ECHCG); 85% in experiment [5] (Helianthus annuus, 336 h, 35 g ai/ha, foliar post-emergent, scored after 14 days, read-out: % Visual Growth Reduction HELAN); 10% in experiment [6] (Euphorbia heterophylla, 336 h, 35 g ai/ha, foliar post-emergent, scored after 14 days, read-out: % Visual Growth Reduction EPHHL). In addition, the pest or weed control at 70 g/ha in experiment [1] (setting [7]) was 0%; in experiment [2] (setting [8]) it was 90%; in experiment [3] (setting [9]) it was 80%; in experiment [4] (setting [10]), 0%; in experiment [5] (setting [11]), 90%; in experiment [6] (setting [12]) it was 100%. Besides, the pest or weed control at 140 g/ha in experiment [1] (setting [7]) worked out at 50%; in experiment [2] (setting [8]), 100%; in experiment [3] (setting [9]), 90%; in experiment [4] (setting [10]), 15%; in experiment [5] (setting [11]), 95%; in experiment [6] (setting [12]), 100%. Besides, the pest or weed control at 280 g/ha worked out at 60% in experiment [1] (setting [7]); 100% in experiment [2] (setting [8]); 100% in experiment [3] (setting [9]); 60% in experiment [4] (setting [10]); 95% in experiment [5] (setting [11]); 100% in experiment [6] (setting [12]). Further, in experiment [1], the “GR80 Value VIOTR” value is 334 g ai/ha. Moreover, in experiment [2], the “GR80 Value CHEAL” value is reported as 16.8 g ai/ha. Also, in experiment [3], the “GR80 Value AMARE” value is listed as 89.2 g ai/ha. Also, the “GR80 Value ECHCG” value in experiment [4] was 411 g ai/ha. Also, the “GR80 Value HELAN” value in experiment [5] is recorded as 18 g ai/ha. Moreover, the “GR80 Value EPHHL” value in experiment [6] is on record as 53.9 g ai/ha.
`COC(=O)c1nc(C(C)CF)c(F)c(N)c1Cl` (stereo not drawn) [Compound F37, methyl 4-amino-3-chloro-5-fluoro-6-(1-fluoropropan-2-yl)picolinate]: the plant injury at 132 g/ha in the experiment with Zea mays L. (corn) (132 g ai/ha) and in the experiment on Oryza sativa L. (rice) (132 g ai/ha) was 0% each time. Besides, the pest or weed control at 132 g/ha amounted to 0% in experiment [1] (Viola tricolor, 336 h, 132 g ai/ha, foliar post-emergent, scored after 14 days, read-out: % Visual Growth Reduction VIOTR); 0% in experiment [2] (Chenopodium album, 336 h, 132 g ai/ha, foliar post-emergent, scored after 14 days, read-out: % Visual Growth Reduction CHEAL); 50% in experiment [3] (Amaranthus retroflexus, 336 h, 132 g ai/ha, foliar post-emergent, scored after 14 days, read-out: % Visual Growth Reduction AMARE); 0% in experiment [4] (Echinochloa crus-galli, 336 h, 132 g ai/ha, foliar post-emergent, scored after 14 days, read-out: % Visual Growth Reduction ECHCG); 80% in experiment [5] (Helianthus annuus, 336 h, 132 g ai/ha, foliar post-emergent, scored after 14 days, read-out: % Visual Growth Reduction HELAN); 100% in experiment [6] (Euphorbia heterophylla, 336 h, 132 g ai/ha, foliar post-emergent, scored after 14 days, read-out: % Visual Growth Reduction EPHHL).
On to `COC(=O)c1nc(CCF)c(F)c(N)c1Cl` [Compound F29, Methyl 4-amino-3-chloro-5-fluoro-6-(2-fluoroethyl)picolinate], for which the plant injury at 70 g/ha in the experiment on Zea mays L. (corn) and in the experiment with Oryza sativa L. (rice) was 0% in each case. Also, the plant injury at 140 g/ha with Zea mays L. (corn) and in the experiment with Oryza sativa L. (rice) was 0% in each case. In addition, the plant injury at 280 g/ha in the experiment on Zea mays L. (corn) and in the experiment with Oryza sativa L. (rice) was 0% in each case. For the same compound, the pest or weed control at 70 g/ha in experiment [1] (setting [7]) is 10%; in experiment [2] (setting [8]), 90%; in experiment [3] (setting [9]), 90%; in experiment [4] (setting [10]) it was 0%; in experiment [5] (setting [11]), 80%; in experiment [6] (setting [12]), 100%. The pest or weed control at 140 g/ha stood at 70% in experiment [1] (setting [7]); 90% in experiment [2] (setting [8]); 100% in experiment [3] (setting [9]); 10% in experiment [4] (setting [10]); 90% in experiment [5] (setting [11]); 100% in experiment [6] (setting [12]). For the same compound, the pest or weed control at 280 g/ha is 90% in experiment [1] (setting [7]); 90% in experiment [2] (setting [8]); 100% in experiment [3] (setting [9]); 60% in experiment [4] (setting [10]); 90% in experiment [5] (setting [11]); 100% in experiment [6] (setting [12]). For the same compound, in experiment [1], the “GR80 Value VIOTR” value is on record as 203 g ai/ha. Moreover, the “GR80 Value CHEAL” value in experiment [2] was less than 17.5 g ai/ha. Also, the “GR80 Value AMARE” value in experiment [3] is 55.1 g ai/ha. Besides, in experiment [4], the “GR80 Value ECHCG” value is given as 432 g ai/ha. Further, the “GR80 Value HELAN” value in experiment [5] was 60 g ai/ha. The “GR80 Value EPHHL” value in experiment [6] is reported as 53.9 g ai/ha.
`COC(=O)c1nc(CCl)c(F)c(N)c1Cl` [Compound F21, Methyl 4-amino-3-chloro-6-(chloromethyl)-5-fluoropicolinate]: the plant injury at 280 g/ha in the experiment with Zea mays L. (corn) and in the experiment with Oryza sativa L. (rice) was 0% in each case. The pest or weed control at 280 g/ha in experiment [1] (setting [7]), in experiment [2] (setting [8]), in experiment [3] (setting [9]), in experiment [4] (setting [10]), in experiment [5] (setting [11]) and in experiment [6] (setting [12]) was 0% each time.
